The values below come from patent US20160279187A1, “CALPAIN INHIBITORS FOR IBD AND COLORECTAL CANCER TREATMENT” (UNIVERSITY OF HAWAII, priority 2013, published 2016).

The assay concerns IκB / NFκB in TNFα primed macrophages. Kind of assay: IκB and nuclear NFκB western blot in activated macrophages. As to conditions: vs DMSO. The class given is cell-based, mouse. How it is done: Bone marrow derived macrophages (BMDM) were prepared as previously described by methods known to those skilled in the art. On day 5 of culture, 2×10^6 BMDM were seeded in 6-well plates and the following day were primed for 18 h with TNFα (20 ng/mL), followed by 1 h stimulation with E. faecalis (1 μg/mL; ATCC). Stimulation with E. faecalis was conducted in the presence of the zLLY-CH2F calpain-2 inhibitor (20 μg/mL) or DMSO as a control. Media was removed from treated BMDM, centrifuged at 300×g for 5 min and supernatent analyzed using the Cytometric Bead Array Mouse Inflammation Kit (BD Biosciences, San Jose, Calif.). Cytokine data were analyzed using Flowjo software (Ashland, Oreg.) and GraphPad Prism version 4.0 (GraphPad, La Jolla, Calif.). Cell pellets were lysed and analyzed for IκB and NFκB by Western blot as previously described (Miyazaki, T. et al. Journal of Atherosclerosis and Thrombosis 20, 228-237, 2013). […] Each day 4 wells were quantified using Celltiter MTS reagent (Promega) and the resulting signal was used to generate a proliferation curve. Calpain activity was measured using a Calpain activity assay kit (BioVision, Inc., Milpitas, Calif.) as previously described. Colons were harvested on day 4 and calpain activity measured. […] Supernatants were evaluated for a panel of cytokines including IFNγ, TNFα, IL-6, and MCP-1, IL-10, and IL-12. […]
In general terms: Immunoblotting shows a protein as a band on a membrane.

Where a SMILES comes first, the peptide text is derived from it. The star is where a group is joined. Cbz = O=C(OCc1ccccc1)*; CH2F = FC*

As for `CC(C)C[C@H](NC(=O)OCc1ccccc1)C(=O)N[C@@H](CC(C)C)C(=O)N[C@@H](Cc1ccc(O)cc1)C(=O)CF` [zLLY-CH2F, Z-LLY-CH2F] (Cbz-Leu-Leu-Tyr-CH2F), the IκB degradation result is given as “decreased” and the “NFκB localization to the nucleus” value was “decreased”.
